# Values quoted from earlier work, collected in US20070264370A1, “Composition and methods for the treatment of joint pain using Angelica gigas Nakai extract and powder as combined with Glucosamine Sulfate, or Chondroitin Sulfate and HCL, or MSM, or aspirin, or Celedrin, and as combinations thereof in powder, pill, capsule, spray, liquid, and gelcap form” (priority 2006, published 2007).
# Details: in mammal; oral administration in rats (Kim et al. 2003)
compound,measurement,value
"CC1(C)Oc2cc3oc(=O)ccc3cc2C[C@@H]1O [decursinol, Decursinol]",elimination half life (T1/2),about 3 hours
